“Also recorded” adds a separate entry of the source.
Key:
carbonic anhydrase (CA) [1] = biological target: T1, carbonic anhydrase (CA) (Bos taurus, UniProt P00921); assay: Intact mass spectrometry of recombinant carbonic anhydrase labeled with probe; format: binding, bovine; design: purchased MP Biomedicals; host or cells: bovine erythrocytes; settings: for labeling of CA (intact mass spectrometry): probe 10 μM, B2(OH)4 100 μM or UV irradiation 10 min
Method: (§1) Tetrahydroxydiboron (10 μL, 5 mM in PBS, pH 7.4; 100 μM final concentration) was subsequently added and gently mixed. The tubes were incubated at rt for an additional 10 min. Subsequently, the sample was concentrated via spin filtration (Amicon® Ultra-0.5 mL, UFC500324, 10 kDa MWCO) following the manufacturer's recommended protocol. PBS was added after each filtration cycle and the concentration was repeated for a total of five times. The eluate was collected in a clean microcentrifuge tube and its concentration determined by NanoDrop (Thermo Fisher Scientific™).
The samples were then transferred onto a 24-well plate and UV irradiated (365 nm) for 10 min on ice. After every 2 min of irradiation, the plate was rotated […] to ensure complete and equal UV exposure. After irradiation, the samples were transferred to a spin filtration column (Amicon® Ultra-0.5 mL, UFC500324, 10 kDa MWCO) and concentrated following the manufacturer's recommended protocol. PBS was added after each filtration cycle, and the concentration was repeated for a total of five times. The eluate was collected in a clean microcentrifuge tube and its concentration determined by NanoDrop (Thermo Fisher Scientific™).
Replicate samples of carbonic anhydrase (n=4; labeled with enamine N-oxide 21′a or diazirine 21′b) were desalted on a self-packed column (500 μm I.D. fused silica packed with 5 cm POROSR2 resin) and gradient eluted (0→100% B in 1 min, A=200 mM acetic acid in water, B=200 mM acetic acid in acetonitrile) to the mass spectrometer (LTQ XL mass spectrometer, Thermo Fisher Scientific; spray voltage=5 kV). The mass spectrometer recorded full scan profile spectra n z 300-2000. Mass spectra were deconvoluted using MagTran version 1.03b2 (Zhang et al., J. Am. Chem. Soc. Mass. Spectrom., 3:225-244 (1998)). Percent labeling was calculated as intensity labeled protein/(intensity unlabeled protein+intensity labeled protein)×100%.

carbonic anhydrase (CA) [2] = biological target: T1, carbonic anhydrase (CA); assay: Ligand-directed labeling of equimolar recombinant BSA/CA mixture, in-gel fluorescence; format: binding; settings: equimolar BSA and CA; probe 200 nM, B2(OH)4 100 μM, 10 min, PBS pH 7.4
Method: An equimolar suspension of recombinant BSA and recombinant CA was prepared by combining BSA (22 μg, 1 mg/mL in PBS, pH 7.4) and CA (10 pg, 1 mg/mL in PBS, pH 7.4) in PBS, pH 7.4 (1 mL). This was approximately 333 nM of each protein. For each reaction, an aliquot of this mixture (97 μL) was added to a microcentrifuge tube. […] Sulfonamide competitor (21′, 1 μL, 5 mM solution in 1% DMSO/PBS; 50 μM final concentration) or PBS, pH 7.4 (1 μL) vehicle control was added to the samples. The tubes were incubated at rt for 30 min. Tetrahydroxydiboron (1 μL, 10 mM solution; 100 μM final concentration) was subsequently added with gentle mixing. The tubes were incubated at rt for an additional 10 min. Subsequently, CuAAC click-cocktail solution containing TAMRA-azide (6 μL) was added and the tubes were incubated at rt in the dark for 1 h.
For sample preparation, 5× sample loading buffer (25 μL) was added directly to the TAMRA-modified BSA/CA samples. The samples were subsequently heated to 95° C. for 10 min and then subjected to SDS-PAGE and in-gel fluorescence imaging. In-gel fluorescence imaging was performed on a Typhoon™ FLA 9500 (GE) at 532 nm with photomultiplier tube (PMT) setting of 300 V.

CA2 [3] = biological target: T2, CA2 (Homo sapiens, UniProt P00918); assay: Labeling of endogenous CA in HEK293T cell lysate, streptavidin blot or pulldown and immunoblot against CA2; format: binding; settings: probe 200 nM; diboron 100 μM 10 min or UV irradiation 10 min
T2 construct: endogenous in cells; host or cells: HEK293T
Method: For sample preparation, 5× sample loading buffer was added directly at least 10 μg aliquot of the clicked cell lysate clicked with biotin (picolyl) azide. The samples were subsequently heated to 95° C. for 10 min and loaded onto a BioRad Mini-PROTEAN® TGX™ Precast Protein gel, 4-20% (15 μL) and run in freshly prepared Tris-glycine running buffer (160 V, 50 min). The gel was washed (3×DI water) and transferred to a 0.2 μm PVDF membrane. After transfer, the membrane was washed (3×TBST) and blocked with 5% fish skin gelatin (or any appropriate blocking buffer for Western blot) in TBST (rt, 1 h), and subsequently incubated with the appropriate primary antibody (1:1000 dilution in 5% fish skin gelatin in TBST, rt, 1 h). The membrane was washed (3×TBST) and incubated with the appropriate secondary antibody (1:10000 dilution in 5% fish gelatin in TBST, rt, 1 h). The membrane was again washed thoroughly with TBST and imaged using a chemiluminescence imager (Amersham™ Imager 600, GE).
Samples were loaded onto a Bio-Rad Mini-PROTEAN® TGX™ Precast Protein 15-well gel, 4-20% (15 μL) alongside All Blue Prestained Protein Standard (Bio-Rad, 5 μL) as a ladder, and run in freshly prepared Tris-glycine running buffer (180 V, 45 min). The gel was washed (3×50 mL deionized water) and transferred to a 0.2 m low fluorescence PVDF membrane (Bio-Rad) using a semi-dry transfer apparatus (Bio-Rad Trans-Blot® Turbo™ Transfer System) and preprogrammed transfer setting (1.3 A, 25 V, 10 min).

CA2 [4] = biological target: T2, CA2; assay: In cellulo BARS labeling in live HEK293T cells, immunoblot against CA2; format: cell-based; settings: probe 5 μM 2 h, wash, B2(OH)4 100 μM 10 min
Method: HEK293T cells were cultured in DMEM containing 10% FBS (Sigma), 100 units/mL penicillin, and 0.1 mg/mL streptomycin (Sigma) in a humidified chamber at 37° C. under an ambient atmosphere with 5% CO2. After culturing to >80% confluency in 150 mm plates, the plates were removed from the incubator, the media was aspirated, and the cells were trypsinized at 37° C. with 0.25% trypsin, 0.1% EDTA in HBSS (3 mL). After 3 min, complete growth medium (7 mL) was added to the detached cells, and the cell suspension was transferred to a 50 mL centrifuge tube. Cells were pelleted (400×g, 4 min, 23° C.) and washed with 2×20 mL PBS, pH 7.4. At this point, the density of the cell suspension in PBS was determined by the trypan blue exclusion method. The cells were pelleted once more, and the volume of PBS was adjusted to produce a cell suspension with a final density of 2×10^7 cells/mL. The cell suspension was aliquoted into 2 mL microcentrifuge tubes (3×1 mL, 2×10^7 cells each). […] Competitor 21′ (50 μM final concentration, from a 500 mM stock in DMSO) was also added to the third tube. The samples were incubated at 37° C. with end-over-end rotation. After 2 h of incubation, the cells were pelleted (400×g, 4 min, 23° C.) and washed once with PBS, pH 7.4.

carbonic anhydrase = biological target: T3, carbonic anhydrase (Bos taurus, UniProt P00921); assay: Labeling site identification on recombinant carbonic anhydrase by nano-LC-MS/MS; design: species or system bovine; settings: probe 10 μM, B2(OH)4 100 μM
T3 construct: purchased MP Biomedicals; host or cells: bovine erythrocytes
T3 sequence (P00921 whole entry): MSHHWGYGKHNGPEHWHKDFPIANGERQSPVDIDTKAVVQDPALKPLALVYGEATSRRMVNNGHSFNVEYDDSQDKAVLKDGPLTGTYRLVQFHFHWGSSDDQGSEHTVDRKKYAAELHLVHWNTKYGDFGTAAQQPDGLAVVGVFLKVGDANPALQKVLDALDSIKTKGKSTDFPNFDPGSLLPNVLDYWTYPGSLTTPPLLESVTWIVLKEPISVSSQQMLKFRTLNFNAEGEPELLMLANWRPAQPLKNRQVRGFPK
Method: as §1, with “BARS probe 21′a: Enamine N-oxide 21′a (10 μL, 500 μM in PBS, pH 7.4; 10 μM final concentration) was added to an aliquot of recombinant CA from bovine erythrocytes ([…], MP Biomedicals) suspended in 480 μL PBS, pH 7.4 in a microcentrifuge tube and incubated at rt for 30 min. Tetrahydroxydiboron” for “Tetrahydroxydiboron”
An aliquot of carbonic anhydrase labeled with enamine N-oxide 21′a (prepared from the above procedure) was reduced with dithiothreitol (10 mM final concentration, 56° C., 30 min), alkylated with iodoacetamide (22.5 mM final concentration, rt, 30 min protected from light), and digested overnight with Glu-C (1:20) at 37° C. in 100 mM ammonium bicarbonate. Peptides were desalted using SP3 beads and analyzed by nano-LC-MS/MS using a nanoAcquity UPLC system interfaced to a QExactive HF mass spectrometer (Ficarro et al., Anal. Chem., 9:3440-3447 (2009)). […]

validated targets = assay: Target identification in cell lysate: BARS probe, diboron activation, streptavidin pulldown, immunoblot against validated targets; format: binding; settings: K562 (24′a) or HepG2 (26′a) cell lysate; probe 1 μM, B2(OH)4 100 μM 10 min
Method: The click-modified cell lysate (3 mg) was transferred to 15 mL centrifuge tubes and precipitated via methanol/chloroform precipitation using the following protocol. Methanol (6 mL) was added to the lysate and vortexed. Chloroform (1.5 mL) was subsequently added and vortexed. Finally, water (4 mL) was added and vortexed. The samples were centrifuged (3000×g, 5 min, 4° C.). The top aqueous layer was removed, and methanol (8 mL) was subsequently added and vortexed. The samples were centrifuged (3000×g, 5 min, 4° C.), the supernatant was removed, and the methanol wash was repeated once more. […]
Samples were loaded onto a Bio-Rad Mini-PROTEAN® TGX™ Precast Protein 15-well gel, 4-20% (15 μL) alongside All Blue Prestained Protein Standard (Bio-Rad, 5 μL) as a ladder, and run in freshly prepared Tris-glycine running buffer (180 V, 45 min). The gel was washed (3×50 mL deionized water) and transferred to a […] low fluorescence PVDF membrane (Bio-Rad) using a semi-dry transfer apparatus (Bio-Rad Trans-Blot® Turbo™ Transfer System) and preprogrammed transfer setting (1.3 A, 25 V, 10 min). […]
Enamine N-oxide probe (15 μL; 200 nM or 1 μM final concentration for probe 21′a, […] for probes 22′a-26′a) was added to a microcentrifuge tube containing cell lysate (3 mg, as determined by BCA assay) suspended in cold NP40 lysis buffer (1.455 mL). […]

T1 sequence (P00921 whole entry): as above

SMILES	labeling of CA (intact mass spectrometry) (carbonic anhydrase (CA) [1])	labeling of endogenous CA in HEK293T cell lysate (CA2 [3])	additional targets pulled down (validated targets)	further results
C#CCCC1(CCNC(=O)CCOCCOCCOCCNC(=O)c2ccc(S(N)(=O)=O)cc2)N=N1 [21′b, N-(15-(3-(but-3-yn-1-yl)-3H-diazirin-3-yl)-12-oxo-3,6,9-trioxa-13-azapentadecyl)-4-sulfamoylbenzamide, reference compound]	3.6%	–	–	–
C#CCCC[N+](C)([O-])C(Br)=CC(Cl)CCCC(=O)NCCCOCCOCCOCCCNC(=O)c1ccc(S(N)(=O)=O)cc1 (centres unmarked) [21′a, 23-Bromo-21-chloro-N-methyl-1,17-dioxo-N-(pent-4-yn-1-yl)-1-(4-sulfamoylphenyl)-6,9,12-trioxa-2,16-diazatricos-22-en-23-amine oxide]	51.8%	could also be labeled; also recorded: superior labeling	–	selectivity of labeling, CA over BSA (carbonic anhydrase (CA) [2]): CA was preferentially labeled over BSA; target identification in live HEK293T cells (CA2) (CA2 [4]): positively identified; labeling sites on CA N-terminal peptide (carbonic anhydrase): His2 or His3; improvement of CA labeling, enamine N-oxide over diazirine (carbonic anhydrase (CA) [1]; 51.8% vs 3.6% labeling): 14.4 fold
CCN(CC)C(=O)C=CCCc1ccccc1 [compound 13, reference compound]	–	barely perceptible	–	protein labeled (intact mass spectrometry of CA) (carbonic anhydrase (CA) [1]; N-oxide probe plus diboron or diazirine probe plus UV irradiation): < 1%
C#CCCC[N+](C)([O-])/C(Br)=C/C(Cl)CCCC(=O)N(C)[C@@H]1C[C@H]2O[C@@](C)([C@@H]1OC)n1c3ccccc3c3c4c(c5c6ccccc6n2c5c31)C(=O)NC4 (stereo partly drawn) [26′a, (Z)-1-Bromo-3-chloro-7-(((5S,6R,7R,9R)-6-methoxy-5-methyl-14-oxo-6,7,8,9,15,16-hexahydro-5H,14H-17-oxa-4b,9a,15-triaza-5,9-methanodibenzo[b,h]cyclonona[jkl]cyclopenta[e]-as-indacen-7-yl)(methyl)amino)-N-methyl-7-oxo-N-(pent-4-yn-1-yl)hept-1-en-1-amine oxide]	–	–	PKC and SRC pulled down	–
C#CCCC[N+](C)([O-])/C(Br)=C/C(Cl)CCCC(=O)NCCCCCCNc1cc(Nc2ncc(C(=O)Nc3c(C)cccc3Cl)s2)nc(C)n1 (centres unmarked) [24′a, (Z)-1-Bromo-3-chloro-7-((6-((6-((5-((2-chloro-6-methylphenyl)carbamoyl)thiazol-2-yl)amino)-2-methylpyrimidin-4-yl)amino)hexyl)amino)-N-methyl-7-oxo-N-(pent-4-yn-1-yl)hept-1-en-1-amine oxide]	–	–	ABL and p38 pulled down	–

— US20260176274A1, “ENAMINE N-OXIDE TOOLS FOR TARGET IDENTIFICATION APPLICATIONS” (DANA-FARBER CANCER INSTITUTE, INC., priority 2022, published 2026)
